Data taken from US11420973B2, “Amide substituted indole compounds useful as TLR inhibitors” (BRISTOL-MYERS SQUIBB COMPANY, priority 2017, dated 2022).
Like-named read-outs stand apart in the source and are kept apart here.

Assays:
human TLR8 = human TLR8 (Homo sapiens (Human), UniProt Q9NR97); test: TLR8 inhibition reporter assay (HEK-Blue SEAP reporter, R848 stimulation);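 further: SEAP driven by IFN-β minimal promoter with NF-κB and AP-1 sites, 22 h incubation, compounds 0.05 nM–50 µM, inhibition scaled between agonist plus DMSO and reference inhibitor wells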
human TLR7 = human TLR7 (Homo sapiens (Human), UniProt Q9NYK1); test: TLR7 inhibition reporter assay (HEK-Blue SEAP reporter, gardiquimod stimulation); format: cell-based; details: HEK-Blue cells overexpressing human TLR7, gardiquimod 7.5 μM
human TLR9 = human TLR9 (Homo sapiens (Human), UniProt Q9NR96); test: TLR9 inhibition reporter assay (HEK-Blue SEAP reporter, ODN2006 stimulation);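 further: SEAP reporter under IFN-β minimal promoter with five NF-κB and AP-1 sites, 22 h incubation, compounds 0.05 nM–50 µM, inhibition relative to agonist plus DMSO versus known inhibitor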
[1] = read-out: TLR8 IC50, HEK-Blue cells overexpressing human TLR8, R848 15.9 μM, SEAP reporter
[2] = read-out: TLR9 IC50, HEK-Blue cells overexpressing human TLR9, ODN2006 5 nM, SEAP reporter

Sequence of human TLR8 (Q9NR97 27-1041): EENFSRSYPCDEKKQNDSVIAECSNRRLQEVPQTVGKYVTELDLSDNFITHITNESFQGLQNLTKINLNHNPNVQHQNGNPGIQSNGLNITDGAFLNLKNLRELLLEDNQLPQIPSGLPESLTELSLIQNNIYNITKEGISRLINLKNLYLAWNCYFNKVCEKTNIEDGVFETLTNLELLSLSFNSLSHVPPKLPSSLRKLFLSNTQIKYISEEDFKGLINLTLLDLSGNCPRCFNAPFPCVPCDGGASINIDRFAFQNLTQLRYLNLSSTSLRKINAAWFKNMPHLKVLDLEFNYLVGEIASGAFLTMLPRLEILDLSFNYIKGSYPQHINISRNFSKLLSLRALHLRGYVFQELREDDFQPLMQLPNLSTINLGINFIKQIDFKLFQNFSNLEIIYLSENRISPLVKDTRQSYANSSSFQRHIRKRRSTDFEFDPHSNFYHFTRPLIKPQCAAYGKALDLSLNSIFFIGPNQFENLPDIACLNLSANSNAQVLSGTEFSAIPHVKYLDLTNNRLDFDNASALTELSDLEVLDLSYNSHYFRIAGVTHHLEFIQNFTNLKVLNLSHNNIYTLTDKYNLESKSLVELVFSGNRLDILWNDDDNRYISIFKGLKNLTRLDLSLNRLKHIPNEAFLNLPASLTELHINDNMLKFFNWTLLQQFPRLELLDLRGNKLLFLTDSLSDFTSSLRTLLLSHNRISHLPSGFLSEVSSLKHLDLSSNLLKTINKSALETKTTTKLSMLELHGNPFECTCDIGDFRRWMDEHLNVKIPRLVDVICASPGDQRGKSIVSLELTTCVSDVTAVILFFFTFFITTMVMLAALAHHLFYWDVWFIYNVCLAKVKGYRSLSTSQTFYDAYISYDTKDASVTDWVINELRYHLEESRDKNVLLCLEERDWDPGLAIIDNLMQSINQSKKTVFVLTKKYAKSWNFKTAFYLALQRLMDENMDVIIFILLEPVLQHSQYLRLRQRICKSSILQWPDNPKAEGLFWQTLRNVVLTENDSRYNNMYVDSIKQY
Sequence of human TLR7 (Q9NYK1 27-1049): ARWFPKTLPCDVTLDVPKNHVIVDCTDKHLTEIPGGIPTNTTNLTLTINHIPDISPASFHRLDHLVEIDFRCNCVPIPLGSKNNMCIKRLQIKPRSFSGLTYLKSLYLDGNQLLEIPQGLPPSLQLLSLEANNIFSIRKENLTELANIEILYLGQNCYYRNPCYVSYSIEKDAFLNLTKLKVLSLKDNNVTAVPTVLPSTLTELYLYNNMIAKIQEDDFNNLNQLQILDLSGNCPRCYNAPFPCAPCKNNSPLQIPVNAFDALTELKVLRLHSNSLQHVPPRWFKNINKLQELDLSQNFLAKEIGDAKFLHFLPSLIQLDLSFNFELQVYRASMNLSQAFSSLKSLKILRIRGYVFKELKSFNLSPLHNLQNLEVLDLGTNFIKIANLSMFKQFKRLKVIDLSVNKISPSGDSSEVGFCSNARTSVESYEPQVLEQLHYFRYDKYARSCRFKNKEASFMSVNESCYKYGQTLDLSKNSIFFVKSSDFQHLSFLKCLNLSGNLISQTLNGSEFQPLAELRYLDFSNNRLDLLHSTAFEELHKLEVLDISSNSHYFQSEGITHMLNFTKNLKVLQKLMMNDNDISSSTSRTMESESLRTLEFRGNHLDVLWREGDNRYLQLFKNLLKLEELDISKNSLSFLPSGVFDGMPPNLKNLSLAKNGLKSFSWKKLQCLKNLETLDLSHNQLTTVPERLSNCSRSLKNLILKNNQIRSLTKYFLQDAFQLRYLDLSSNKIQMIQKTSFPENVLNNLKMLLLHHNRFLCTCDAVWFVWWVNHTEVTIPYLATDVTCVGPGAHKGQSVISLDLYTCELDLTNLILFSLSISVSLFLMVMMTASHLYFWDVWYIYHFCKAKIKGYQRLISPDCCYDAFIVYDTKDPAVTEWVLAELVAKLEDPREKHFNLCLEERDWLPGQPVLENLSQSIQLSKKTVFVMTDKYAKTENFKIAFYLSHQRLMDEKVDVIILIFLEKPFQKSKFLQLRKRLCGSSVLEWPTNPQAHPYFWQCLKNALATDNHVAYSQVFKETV
Sequence of human TLR9 (Q9NR96 26-1032): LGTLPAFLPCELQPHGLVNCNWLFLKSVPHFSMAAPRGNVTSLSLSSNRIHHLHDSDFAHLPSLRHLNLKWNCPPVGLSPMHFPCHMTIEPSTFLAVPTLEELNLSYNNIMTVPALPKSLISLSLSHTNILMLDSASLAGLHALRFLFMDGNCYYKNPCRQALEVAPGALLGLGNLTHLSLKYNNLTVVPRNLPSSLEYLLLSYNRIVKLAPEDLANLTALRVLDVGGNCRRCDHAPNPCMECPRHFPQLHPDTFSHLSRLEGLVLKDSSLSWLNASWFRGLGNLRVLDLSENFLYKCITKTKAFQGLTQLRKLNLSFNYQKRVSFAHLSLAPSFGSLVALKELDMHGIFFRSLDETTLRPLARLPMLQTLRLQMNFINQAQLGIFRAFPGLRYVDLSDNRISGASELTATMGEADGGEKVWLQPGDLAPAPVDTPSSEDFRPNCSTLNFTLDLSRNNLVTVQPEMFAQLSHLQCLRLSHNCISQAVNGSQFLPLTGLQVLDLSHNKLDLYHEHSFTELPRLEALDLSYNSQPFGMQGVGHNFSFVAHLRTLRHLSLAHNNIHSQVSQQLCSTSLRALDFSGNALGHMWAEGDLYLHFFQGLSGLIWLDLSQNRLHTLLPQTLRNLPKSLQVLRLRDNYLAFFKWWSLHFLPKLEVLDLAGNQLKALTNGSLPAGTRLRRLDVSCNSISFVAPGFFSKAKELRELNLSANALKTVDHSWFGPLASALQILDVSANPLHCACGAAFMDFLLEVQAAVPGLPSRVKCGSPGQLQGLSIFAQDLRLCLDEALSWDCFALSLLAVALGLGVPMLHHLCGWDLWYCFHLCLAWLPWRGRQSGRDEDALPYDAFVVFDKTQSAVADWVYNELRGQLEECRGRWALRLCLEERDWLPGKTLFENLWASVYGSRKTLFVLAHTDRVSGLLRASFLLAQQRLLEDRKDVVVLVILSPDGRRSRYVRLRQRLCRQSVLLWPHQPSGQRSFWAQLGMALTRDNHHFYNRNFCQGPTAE

Row | Compound | IC50 (human TLR8; [1]) [nM] | IC50 (human TLR7) [nM] | IC50 (human TLR9; [2]) [nM] | IC50 (human TLR8) [nM] | IC50 (human TLR9) [nM]
1 | Cc1cc(-c2[nH]c3ccc(C(C)C(=O)NC4CCCC(N)C4)cc3c2C(C)C)ccn1 (stereo not drawn) [Example 219, N-(3-aminocyclohexyl)-2-(3-isopropyl-2-(2-methylpyridin-4-yl)-1H-indol-5-yl)propanamide] | 182 | 256 | 1750 | – | –
2 | Cc1cc(-c2[nH]c3ccc(C(C)(C)C(=O)N4CCCCC4C4CCNCC4)cc3c2C(C)C)ccn1 (stereo not drawn) [Example 182, 1-([2,4′-bipiperidin]-1-yl)-2-(3-isopropyl-2-(2-methylpyridin-4-yl)-1H-indol-5-yl)-2-methylpropan-1-one] | 81 | 15 | 716 | – | –
3 | Cc1cc(-c2[nH]c3ccc(C(C)(C)C(=O)NC4CCC(N)CC4)cc3c2C(C)C)ccn1 (stereo not drawn) [Example 167, N-(4-aminocyclohexyl)-2-(3-isopropyl-2-(2-methylpyridin-4-yl)-1H-indol-5-yl)-2-methylpropanamide] | 36 | 63 | 2900 | – | –
4 | Cc1cc(-c2[nH]c3ccc(C(C)(C)C(=O)N[C@H]4CCCC[C@H]4N)cc3c2C(C)C)ccn1 [Example 170, N-((1S,2R)-2-aminocyclohexyl)-2-(3-isopropyl-2-(2-methylpyridin-4-yl)-1H-indol-5-yl)-2-methylpropanamide] | 51 | 11 | 1660 | – | –
5 | Cc1cc(-c2[nH]c3ccc(C(=O)N4CC5CN(C(=O)CN(C)C)CC5C4)cc3c2C(C)C)ccn1 (stereo not drawn) [Example 120, 2-(dimethylamino)-1-(5-(3-isopropyl-2-(2-methylpyridin-4-yl)-1H-indole-5-carbonyl)hexahydropyrrolo[3,4-c]pyrrol-2(1H)-yl)ethan-1-one] | 47 | 870 | 752 | – | –
6 | Cc1cc(-c2[nH]c3ccc(C(C)C(=O)N4CCC5(CCN(C)C5)CC4)cc3c2C(C)C)ccn1 (stereo not drawn) [Example 198, 2-(3-isopropyl-2-(2-methylpyridin-4-yl)-1H-indol-5-yl)-1-(2-methyl-2,8-diazaspiro[4.5]decan-8-yl)propan-1-one] | 72 | 46 | 1310 | – | –
7 | Cc1cc(-c2[nH]c3ccc(C(C)C(=O)N4CCC(CN)CC4)cc3c2C(C)C)ccn1 (stereo not drawn) [Example 202, 1-(4-(aminomethyl)piperidin-1-yl)-2-(3-isopropyl-2-(2-methylpyridin-4-yl)-1H-indol-5-yl)propan-1-one] | 534 | 174 | 1350 | – | –
8 | Cc1cc(-c2[nH]c3ccc(C(C)(C)C(=O)N4CCC(OC5CCNCC5)CC4)cc3c2C(C)C)ccn1 [Example 177, 2-(3-isopropyl-2-(2-methylpyridin-4-yl)-1H-indol-5-yl)-2-methyl-1-(4-(piperidin-4-yloxy)piperidin-1-yl)propan-1-one] | 58 | 128 | 1460 | – | –
9 | Cc1cc(-c2[nH]c3ccc(C(=O)N4CC5CN(C)CC5C4)cc3c2C(C)C)cc(C)n1 (stereo not drawn) [Example 109, (2-(2,6-dimethylpyridin-4-yl)-3-isopropyl-1H-indol-5-yl)(5-methylhexahydropyrrolo[3,4-c]pyrrol-2(1H)-yl)methanone] | 2.3 | 18 | 116 | – | –
10 | Cc1cc(-c2[nH]c3ccc(C(C)(C)C(=O)N(C)C4CCNCC4)cc3c2C(C)C)ccn1 [Example 165, 2-(3-isopropyl-2-(2-methylpyridin-4-yl)-1H-indol-5-yl)-N,2-dimethyl-N-(piperidin-4-yl)propanamide] | 63 | 61 | 908 | – | –
11 | Cc1cc(-c2[nH]c3ccc(C(C)C(=O)NC4CCN(C(C)C)CC4)cc3c2C(C)C)ccn1 (stereo not drawn) [Example 194, 2-(3-isopropyl-2-(2-methylpyridin-4-yl)-1H-indol-5-yl)-N-(1-isopropylpiperidin-4-yl)propanamide] | – | 152 | – | 106 | 3890
12 | Cc1cc(-c2[nH]c3ccc(C(C)(C)C(=O)N4CCC5(CCNC5)CC4)cc3c2C(C)C)ccn1 [Example 181, 2-(3-isopropyl-2-(2-methylpyridin-4-yl)-1H-indol-5-yl)-2-methyl-1-(2,8-diazaspiro[4.5]decan-8-yl)propan-1-one] | 1240 | 76 | 1950 | – | –

Second part, the molecule after the results:

Row | IC50 (human TLR8; [1]) [nM] | IC50 (human TLR7) [nM] | IC50 (human TLR9; [2]) [nM] | IC50 (human TLR8) [nM] | IC50 (human TLR9) [nM] | Compound
13 | 1040 | 2240 | > 50000 | – | – | CCc1c(-c2ccc(OC)c(OC)c2)[nH]c2ccc(C(=O)NCc3csc(-c4ccccc4)n3)cc12 [Example 45, 2-(3,4-dimethoxyphenyl)-3-ethyl-N-((2-phenylthiazol-4-yl)methyl)-1H-indole-5-carboxamide]
14 | 581 | 1790 | 31400 | – | – | CCc1c(-c2ccc(OC)c(OC)c2)[nH]c2ccc(C(=O)N(C)CCc3ccccn3)cc12 [Example 24, 2-(3,4-dimethoxyphenyl)-3-ethyl-N-methyl-N-(2-(pyridin-2-yl)ethyl)-1H-indole-5-carboxamide]
15 | 1.7 | 2.5 | 916 | – | – | COc1cc(-c2[nH]c3ccc(C(=O)NC4CCN(C(C)C)CC4)cc3c2C(C)C)cn2ncnc12 [Example 127, 3-isopropyl-N-(1-isopropylpiperidin-4-yl)-2-(8-methoxy-[1,2,4]triazolo[1,5-a]pyridin-6-yl)-1H-indole-5-carboxamide]
16 | 16 | 156 | 5880 | – | – | CCc1c(-c2ccc(OC)c(OC)c2)[nH]c2ccc(C(=O)N(C)CCCN(C)C)cc12 [Example 74, 2-(3,4-dimethoxyphenyl)-N-(3-(dimethylamino)propyl)-3-ethyl-N-methyl-1H-indole-5-carboxamide]
17 | 2.9 | 177 | 836 | – | – | CCc1c(-c2ccc(OC)c(OC)c2)[nH]c2ccc(C(=O)N3CCN(C4CCN(C(C)C)CC4)CC3)cc12 [Example 80, (2-(3,4-dimethoxyphenyl)-3-ethyl-1H-indol-5-yl)(4-(I-isopropylpiperidin-4-yl)piperazin-1-yl) methanone]
18 | 23 | 19 | 727 | – | – | CCN(CCN(C)C)C(=O)c1ccc2[nH]c(-c3cc(C)nc(C)c3)c(CC(F)F)c2c1 [Example 125, 3-(2,2-difluoroethyl)-N-(2-(dimethylamino)ethyl)-2-(2,6-dimethylpyridin-4-yl)-N-ethyl-1H-indole-5-carboxamide]
19 | 5.7 | 545 | 8700 | – | – | CCc1c(-c2ccc(OC)c(OC)c2)[nH]c2ccc(C(=O)N3CCN(CCO)CC3)cc12 [Example 40, (2-(3,4-dimethoxyphenyl)-3-ethyl-1H-indol-5-yl)(4-(2-hydroxyethyl)piperazin-1-yl)methanone]
20 | 274 | 968 | > 50000 | – | – | CCc1c(-c2ccc(OC)c(OC)c2)[nH]c2ccc(C(=O)NCCO)cc12 [Example 69, 2-(3,4-dimethoxyphenyl)-3-ethyl-N-(2-hydroxyethyl)-1H-indole-5-carboxamide]
21 | 14 | 186 | 3710 | – | – | CCc1c(-c2ccc(OC)c(OC)c2)[nH]c2ccc(C(=O)N3CCC(N4CCN(C)CC4)CC3)cc12 [Example 25, (2-(3,4-dimethoxyphenyl)-3-ethyl-1H-indol-5-yl)(4-(4-methylpiperazin-1-yl)piperidin-1-yl)methanone]
22 | 150 | 57 | 691 | – | – | Cc1cc(-c2[nH]c3ccc(C(C)(C)C(=O)NCC4(O)CCN(C)CC4)cc3c2C(C)C)ccn1 [Example 173, N-((4-hydroxy-1-methylpiperidin-4-yl)methyl)-2-(3-isopropyl-2-(2-methylpyridin-4-yl)-1H-indol-5-yl)-2-methylpropanamide]
23 | 61 | 61 | 2160 | – | – | COc1ccc(-c2[nH]c3ccc(C(=O)N4CC5CN(C)CC5C4)cc3c2C(C)C)cc1OC (stereo not drawn) [Example 13, (2-(3,4-dimethoxyphenyl)-3-isopropyl-1H-indol-5-yl)(5-methylhexahydropyrrolo[3,4-c]pyrrol-2(1H)-yl)methanone]
24 | 2.1 | 9.2 | 670 | – | – | Cc1cc(-c2[nH]c3ccc(C(=O)NC4CCN(C(C)C)CC4)cc3c2C(C)C)cc(C)n1 [Example 91, 2-(2,6-dimethylpyridin-4-yl)-3-isopropyl-N-(1-isopropylpiperidin-4-yl)-1H-indole-5-carboxamide]
25 | 1.2 | 299 | 5270 | – | – | CCc1c(-c2ccc(OC)c(OC)c2)[nH]c2ccc(C(=O)N3CCN(C(C)C)CC3)cc12 [Example 38, (2-(3,4-dimethoxyphenyl)-3-ethyl-1H-indol-5-yl)(4-isopropylpiperazin-1-yl)methanone]
26 | 191 | 632 | 4160 | – | – | CCc1c(-c2ccc(OC)c(OC)c2)[nH]c2ccc(C(=O)N3CC[C@H](N(C)C)C3)cc12 [Example 30, (S)-(2-(3,4-dimethoxyphenyl)-3-ethyl-1H-indol-5-yl)(3-(dimethylamino)pyrrolidin-1-yl)methanone]
27 | 1.4 | 2.9 | 594 | – | – | CCN(CCN(C)C)C(=O)c1ccc2[nH]c(-c3cc(C)nc(C)c3)c(C(C)C)c2c1 [Example 93, N-(2-(dimethylamino)ethyl)-2-(2,6-dimethylpyridin-4-yl)-N-ethyl-3-isopropyl-1H-indole-5-carboxamide]
28 | 572 | 2500 | > 50000 | – | – | CCc1c(-c2ccc(OC)c(OC)c2)[nH]c2ccc(C(=O)NCc3ccco3)cc12 [Example 43, 2-(3,4-dimethoxyphenyl)-3-ethyl-N-(furan-2-ylmethyl)-1H-indole-5-carboxamide]
29 | 2.4 | 135 | 3630 | – | – | Cc1cc(-c2[nH]c3ccc(C(=O)N4CCCN(C)CC4)cc3c2C(C)C)ccn1 [Example 114, (3-isopropyl-2-(2-methylpyridin-4-yl)-1H-indol-5-yl)(4-methyl-1,4-diazepan-1-yl)methanone]
